The results in this text go back to ChEMBL document CHEMBL1141631, “Novel ketooxazole based inhibitors of fatty acid amide hydrolase (FAAH)” (Bioorg Med Chem Lett, 2008).

The target in series [1] is T1, Fatty-acid amide hydrolase 1 (Homo sapiens, UniProt O00519).
T1 sequence (O00519 whole entry): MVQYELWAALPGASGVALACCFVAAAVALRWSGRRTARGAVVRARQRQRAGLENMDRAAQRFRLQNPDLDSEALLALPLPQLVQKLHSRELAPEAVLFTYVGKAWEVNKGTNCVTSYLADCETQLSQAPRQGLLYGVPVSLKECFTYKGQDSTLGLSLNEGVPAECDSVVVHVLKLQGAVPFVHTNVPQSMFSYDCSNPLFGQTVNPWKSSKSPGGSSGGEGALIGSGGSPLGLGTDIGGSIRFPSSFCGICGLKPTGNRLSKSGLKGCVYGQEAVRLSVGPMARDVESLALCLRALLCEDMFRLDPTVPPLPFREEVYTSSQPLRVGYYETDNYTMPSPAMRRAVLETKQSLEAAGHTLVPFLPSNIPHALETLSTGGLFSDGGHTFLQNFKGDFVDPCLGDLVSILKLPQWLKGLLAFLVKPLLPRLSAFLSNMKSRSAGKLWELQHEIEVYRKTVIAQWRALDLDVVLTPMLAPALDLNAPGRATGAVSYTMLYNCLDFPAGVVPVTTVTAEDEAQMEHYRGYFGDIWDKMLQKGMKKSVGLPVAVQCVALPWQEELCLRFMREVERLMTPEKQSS
Put plainly: Inhibition of human FAAH.

The nature of series [2]: Aqueous solubility in water. It is filed as physicochemical.
The species entered for series [3] is Rattus norvegicus. Put plainly: Toxicity in spinal nerve ligated rat model assessed as motor impairment by rotarod test. The conditions noted are these: in vivo. It is filed as organism-based.
Series [4] is described as follows: Plasma concentration in spinal nerve ligated rat model at 4 mg/kg, iv followed by infusion of 6 mg/kg/hr after 6 hrs. It is filed as ADME, organism-based.
Series [5] is filed under the species Rattus norvegicus. Kind of series: Reversal of tactile allodynia in spinal nerve ligated rat model. It is filed as functional.
In series [6] the test system is Rattus norvegicus. Put plainly: Reversal of tactile allodynia in spinal nerve ligated rat model at 4 mg/kg, iv followed by infusion of 6 mg/kg/hr after 6 hrs. It is filed as functional, organism-based.

Converted amounts (≈) assume the structure as drawn. The source made the active and inactive calls. No cut-off for these calls is given here.

Usually IC50 stands for the point on the concentration scale where inhibition reaches its midpoint. Higher therefore signals a need for much substance. One may read the solubility as the dissolved amount per volume that the medium holds. High values mean much dissolved substance, low ones little dissolved substance. Usually ED50 stands for the dose that gives a 50% effect, or the effect in half of the subjects.

The compound `CC(C)S(=O)(=O)N1CCC(CCCC(=O)c2ncco2)CC1` displayed an IC50 in series [1] of 140 nM.
Compound `O=C(CCCCCCc1ccccc1)c1ncco1` displayed an IC50 in series [1] of 43 nM.
Compound `O=C(CCCC1CCN(C(=O)OCc2ccccc2)CC1)c1ncco1` displayed an IC50 in series [1] of 4 nM.
On the same count and under the same terms, the same measure for `O=C(CCCC1CCN(S(=O)(=O)c2ccccc2)CC1)c1ncco1`: 2.5 nM; for `O=C(CCCC1CCNCC1)c1ncco1`: 5700 nM.
With `CC(C)c1ccc(CN2CCC(CCCC(=O)c3ncco3)CC2)cc1`, the solubility in series [2] was > 400 µg/mL. Besides, the Activity result in the series listed under Rattus norvegicus [3] is listed as “Non-toxic”. In series [4], this compound gave a concentration at 6 h of 1200 nM. The ED50 in the series filed under Rattus norvegicus [5] turned out to be 7.3 mg/kg. Also, the result with Rattus norvegicus [6] was Active. In series [1], this compound displayed a concentration for half-maximal inhibition (IC50) of 3.6 nM.
`O=C(CCCCCCc1ccccc1)c1ncc(-c2ccccn2)o1` yielded a solubility in series [2] of 16 µg/mL (≈ 47.8 µM).
In turn, `COc1ccc(CN2CCC(CCCC(=O)c3ncco3)CC2)cc1` registered an IC50 in series [1] of 130 nM.
Consider `O=C(CCCC1CCN(C(=O)c2ccccc2)CC1)c1ncco1`, for which, in series [1], it took 77 nM to reach half-maximal inhibition (IC50).
For the compound `COc1cccc(CN2CCC(CCCC(=O)c3ncco3)CC2)c1`, 34 nM corresponded to half-maximal inhibition in series [1] (IC50).
In the case of `O=C(CCCC1CCN(C(=O)CCC2CCCCC2)CC1)c1ncco1`, in series [1], the IC50 was determined as 3 nM.
As for `CC(C)(C)OC(=O)N1CCC(CCCC(=O)c2ncco2)CC1`, the midpoint of inhibition in series [1], the IC50, lay at 2 nM.
`O=C(CCCC1CCN(C(=O)CCc2ccccc2)CC1)c1ncco1` had an IC50 in series [1] of 22 nM.
